Data published in paper PMC4643674 (Journal of medicinal chemistry, 2013).

Key:
[1] = tested on: 42 different ion channels, G-protein coupled receptors, and transporters; assay: NIMH PDSP primary binding assay; conditions: 5 µM compound
plasma stability, human = format: in vitro ADME; conditions: two-hour time-course, Figure S2
GluA3 = GluA3 (Rattus norvegicus, UniProt P19492); assay: off-target two-electrode voltage clamp, GluA3; format: cell-based; conditions: read-out: ITEST / ICONTROL (mean ± SEM, %)
GluA3, sequence (P19492 23-888): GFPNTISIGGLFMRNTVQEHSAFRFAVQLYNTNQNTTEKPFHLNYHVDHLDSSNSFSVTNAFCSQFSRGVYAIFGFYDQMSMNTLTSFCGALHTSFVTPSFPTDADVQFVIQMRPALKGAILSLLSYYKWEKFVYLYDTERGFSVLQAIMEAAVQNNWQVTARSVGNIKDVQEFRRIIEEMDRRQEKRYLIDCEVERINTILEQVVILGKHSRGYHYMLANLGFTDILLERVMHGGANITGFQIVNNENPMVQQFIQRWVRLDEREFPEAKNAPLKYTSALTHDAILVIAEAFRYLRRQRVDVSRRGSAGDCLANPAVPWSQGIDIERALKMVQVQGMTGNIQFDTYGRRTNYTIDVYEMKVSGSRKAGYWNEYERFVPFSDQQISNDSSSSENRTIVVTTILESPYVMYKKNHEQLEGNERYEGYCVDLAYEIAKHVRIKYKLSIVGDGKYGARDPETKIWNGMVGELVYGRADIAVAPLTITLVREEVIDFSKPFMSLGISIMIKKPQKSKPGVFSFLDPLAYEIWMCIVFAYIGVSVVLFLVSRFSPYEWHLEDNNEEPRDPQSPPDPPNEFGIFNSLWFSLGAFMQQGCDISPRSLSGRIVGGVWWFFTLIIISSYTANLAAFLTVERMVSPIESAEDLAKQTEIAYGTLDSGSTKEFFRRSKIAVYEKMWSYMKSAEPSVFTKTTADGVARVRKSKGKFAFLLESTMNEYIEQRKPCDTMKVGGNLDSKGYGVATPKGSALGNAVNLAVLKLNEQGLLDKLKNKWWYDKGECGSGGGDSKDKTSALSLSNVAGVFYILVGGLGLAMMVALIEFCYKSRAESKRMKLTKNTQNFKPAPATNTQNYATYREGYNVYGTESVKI

plasma stability, rat = format: in vitro ADME; conditions: two-hour time-course, Figure S2
plasma stability, mouse = format: in vitro ADME; conditions: two-hour time-course, Figure S2
GluK1 = GluK1 (Rattus norvegicus, UniProt P22756); assay: off-target two-electrode voltage clamp, GluK1; format: cell-based; conditions: read-out: ITEST / ICONTROL (mean ± SEM, %)
GluN1/GluN2C = GluN1/GluN2C (Rattus norvegicus, UniProt P35439+Q00961); format: cell-based
[2] = human liver microsomal stability; format: in vitro ADME
P-gp (MDR1) = assay: MDR1-MDCK permeability assay; format: in vitro ADME, canine; conditions: dog; for Papp B→A at 120 min, 5 µM / Papp A→B at 120 min, 5 µM: MDCK-MDR1, pH 7.4, Papp; for recovery at 120 min, 5 µM: MDCK-MDR1, pH 7.4, Recovery (%)
GluN1/GluN2B = GluN1/GluN2B (Rattus norvegicus, UniProt P35439+Q00960); format: cell-based
GluN1/GluN2B, sequence (Q00960 27-1482, other chains not shown): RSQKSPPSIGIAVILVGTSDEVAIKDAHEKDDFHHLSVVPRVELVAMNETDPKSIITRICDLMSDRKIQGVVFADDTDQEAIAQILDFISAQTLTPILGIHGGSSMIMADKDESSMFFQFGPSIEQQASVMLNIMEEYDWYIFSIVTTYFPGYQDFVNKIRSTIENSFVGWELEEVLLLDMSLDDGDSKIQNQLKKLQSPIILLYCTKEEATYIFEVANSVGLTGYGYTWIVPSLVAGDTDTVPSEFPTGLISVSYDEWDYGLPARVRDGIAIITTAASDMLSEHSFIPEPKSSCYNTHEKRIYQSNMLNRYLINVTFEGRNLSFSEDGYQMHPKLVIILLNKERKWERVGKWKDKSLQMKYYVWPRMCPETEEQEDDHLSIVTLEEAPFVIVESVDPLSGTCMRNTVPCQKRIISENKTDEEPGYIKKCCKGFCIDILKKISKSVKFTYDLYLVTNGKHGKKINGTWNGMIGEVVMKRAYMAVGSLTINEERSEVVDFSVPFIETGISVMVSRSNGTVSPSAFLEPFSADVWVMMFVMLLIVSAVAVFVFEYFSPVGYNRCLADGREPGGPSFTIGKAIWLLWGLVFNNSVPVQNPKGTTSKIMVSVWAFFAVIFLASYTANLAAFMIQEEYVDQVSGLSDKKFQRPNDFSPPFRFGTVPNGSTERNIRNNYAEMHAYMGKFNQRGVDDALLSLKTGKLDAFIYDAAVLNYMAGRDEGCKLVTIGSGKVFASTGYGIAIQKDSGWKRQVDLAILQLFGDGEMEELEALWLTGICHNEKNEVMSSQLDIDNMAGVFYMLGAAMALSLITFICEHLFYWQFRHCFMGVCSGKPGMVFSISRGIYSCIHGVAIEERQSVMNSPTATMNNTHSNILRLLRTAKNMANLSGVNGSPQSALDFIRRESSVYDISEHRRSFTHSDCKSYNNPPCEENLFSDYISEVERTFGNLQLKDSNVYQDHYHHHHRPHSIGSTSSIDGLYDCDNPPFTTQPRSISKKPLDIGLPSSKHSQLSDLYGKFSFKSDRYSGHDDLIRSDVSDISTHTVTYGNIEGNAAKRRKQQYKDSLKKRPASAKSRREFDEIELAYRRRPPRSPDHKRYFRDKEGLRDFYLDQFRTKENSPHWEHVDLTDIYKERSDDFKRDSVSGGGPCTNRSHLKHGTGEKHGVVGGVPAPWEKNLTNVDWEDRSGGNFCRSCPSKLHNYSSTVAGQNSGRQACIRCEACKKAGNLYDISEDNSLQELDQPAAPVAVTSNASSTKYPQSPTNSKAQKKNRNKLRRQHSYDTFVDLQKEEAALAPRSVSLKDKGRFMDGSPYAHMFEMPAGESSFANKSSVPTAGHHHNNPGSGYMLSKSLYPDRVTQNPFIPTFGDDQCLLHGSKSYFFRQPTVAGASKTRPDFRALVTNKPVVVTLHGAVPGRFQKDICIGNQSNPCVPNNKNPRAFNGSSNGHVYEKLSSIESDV

GluN1/GluN2A = GluN1/GluN2A (Rattus norvegicus, UniProt P35439+Q00959); format: cell-based
GluN1/GluN2A, sequence (Q00959 23-1464, other chains not shown): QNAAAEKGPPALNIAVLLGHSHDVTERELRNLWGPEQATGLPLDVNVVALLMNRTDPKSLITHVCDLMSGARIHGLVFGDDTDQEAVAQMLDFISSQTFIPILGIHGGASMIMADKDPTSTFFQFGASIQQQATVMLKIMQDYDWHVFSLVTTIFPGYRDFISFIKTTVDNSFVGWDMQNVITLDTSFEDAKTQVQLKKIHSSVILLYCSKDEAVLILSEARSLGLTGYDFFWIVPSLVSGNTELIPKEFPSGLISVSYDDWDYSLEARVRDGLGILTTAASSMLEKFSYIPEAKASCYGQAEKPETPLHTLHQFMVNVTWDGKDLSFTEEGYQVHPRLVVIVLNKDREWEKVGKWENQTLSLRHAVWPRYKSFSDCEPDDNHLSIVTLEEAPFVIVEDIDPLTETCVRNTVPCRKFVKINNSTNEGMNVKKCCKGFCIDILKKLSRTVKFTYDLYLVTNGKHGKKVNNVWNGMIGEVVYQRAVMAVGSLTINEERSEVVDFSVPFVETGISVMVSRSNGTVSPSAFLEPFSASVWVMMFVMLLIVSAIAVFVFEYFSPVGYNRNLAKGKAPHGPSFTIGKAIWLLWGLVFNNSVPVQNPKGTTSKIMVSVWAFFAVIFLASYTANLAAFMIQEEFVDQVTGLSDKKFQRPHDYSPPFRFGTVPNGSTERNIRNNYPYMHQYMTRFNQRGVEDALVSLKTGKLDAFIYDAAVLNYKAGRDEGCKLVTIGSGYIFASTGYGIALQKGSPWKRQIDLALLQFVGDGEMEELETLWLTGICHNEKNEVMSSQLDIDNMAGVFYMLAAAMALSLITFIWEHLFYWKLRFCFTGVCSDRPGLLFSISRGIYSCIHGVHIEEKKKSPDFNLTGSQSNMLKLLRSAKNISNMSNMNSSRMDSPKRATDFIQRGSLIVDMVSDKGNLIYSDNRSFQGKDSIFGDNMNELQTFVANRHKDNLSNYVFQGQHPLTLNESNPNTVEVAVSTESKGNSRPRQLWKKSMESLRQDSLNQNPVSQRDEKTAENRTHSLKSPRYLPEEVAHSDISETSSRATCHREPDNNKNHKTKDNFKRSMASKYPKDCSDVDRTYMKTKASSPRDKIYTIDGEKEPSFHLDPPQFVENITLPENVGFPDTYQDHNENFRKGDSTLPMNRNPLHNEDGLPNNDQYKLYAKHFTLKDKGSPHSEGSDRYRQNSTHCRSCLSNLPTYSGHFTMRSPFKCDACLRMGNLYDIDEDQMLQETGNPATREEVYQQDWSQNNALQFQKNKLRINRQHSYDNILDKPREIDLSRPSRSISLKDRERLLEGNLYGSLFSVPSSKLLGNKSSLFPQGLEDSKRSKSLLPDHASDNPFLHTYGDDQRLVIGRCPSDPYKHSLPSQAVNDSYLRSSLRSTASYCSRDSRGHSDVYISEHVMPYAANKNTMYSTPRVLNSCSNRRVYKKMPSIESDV

GluN1/GluN2D [3] = target: GluN1/GluN2D (Rattus norvegicus, UniProt P35439+Q62645); format: cell-based
GluN1/GluN2D (Rattus norvegicus, UniProt P35439+Q62645), sequence (Q62645 28-1323, other chains not shown): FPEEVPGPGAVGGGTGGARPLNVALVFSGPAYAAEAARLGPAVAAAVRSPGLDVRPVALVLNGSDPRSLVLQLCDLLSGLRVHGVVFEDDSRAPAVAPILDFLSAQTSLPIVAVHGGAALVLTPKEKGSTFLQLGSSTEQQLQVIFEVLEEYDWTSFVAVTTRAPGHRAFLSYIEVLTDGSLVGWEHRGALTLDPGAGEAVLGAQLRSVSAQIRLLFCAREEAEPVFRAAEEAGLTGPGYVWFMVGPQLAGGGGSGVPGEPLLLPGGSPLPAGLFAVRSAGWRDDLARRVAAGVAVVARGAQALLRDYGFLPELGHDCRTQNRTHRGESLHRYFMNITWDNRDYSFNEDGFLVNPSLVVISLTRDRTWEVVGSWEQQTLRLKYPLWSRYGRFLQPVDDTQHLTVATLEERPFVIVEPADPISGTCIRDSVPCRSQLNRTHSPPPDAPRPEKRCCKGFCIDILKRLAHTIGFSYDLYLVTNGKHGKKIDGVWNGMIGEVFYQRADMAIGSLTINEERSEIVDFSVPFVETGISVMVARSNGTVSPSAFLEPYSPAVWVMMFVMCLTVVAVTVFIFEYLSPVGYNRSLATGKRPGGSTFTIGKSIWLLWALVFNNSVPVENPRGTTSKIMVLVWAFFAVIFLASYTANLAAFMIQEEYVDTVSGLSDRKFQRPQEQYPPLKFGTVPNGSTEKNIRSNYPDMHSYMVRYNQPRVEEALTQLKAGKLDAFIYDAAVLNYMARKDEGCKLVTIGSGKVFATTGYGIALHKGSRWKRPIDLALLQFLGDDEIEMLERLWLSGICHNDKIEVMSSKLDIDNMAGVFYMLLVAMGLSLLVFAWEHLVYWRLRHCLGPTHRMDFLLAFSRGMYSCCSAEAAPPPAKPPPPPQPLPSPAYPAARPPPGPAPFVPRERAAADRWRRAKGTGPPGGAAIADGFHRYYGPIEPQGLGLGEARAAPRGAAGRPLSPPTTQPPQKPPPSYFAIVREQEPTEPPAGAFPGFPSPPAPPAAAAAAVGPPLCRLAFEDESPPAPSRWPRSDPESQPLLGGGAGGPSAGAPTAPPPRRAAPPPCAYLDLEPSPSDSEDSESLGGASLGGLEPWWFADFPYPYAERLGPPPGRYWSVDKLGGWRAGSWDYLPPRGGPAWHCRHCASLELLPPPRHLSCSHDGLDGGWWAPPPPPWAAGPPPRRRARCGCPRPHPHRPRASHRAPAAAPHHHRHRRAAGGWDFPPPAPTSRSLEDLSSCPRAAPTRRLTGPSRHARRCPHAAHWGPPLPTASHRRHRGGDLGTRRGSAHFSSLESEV

NMDA receptor subtypes = assay: two-electrode voltage clamp, activity statements without named subtype; format: cell-based; conditions: receptor subtype not named
GluN1/GluN2D [4] = target: GluN1/GluN2D (Rattus norvegicus, UniProt Q62645); format: cell-based
GluN1/GluN2D (Rattus norvegicus, UniProt Q62645), sequence (Q62645 28-1323, other chains not shown): as above

MDR1-MDCK = MDR1-MDCK permeability assay; format: in vitro ADME, canine; conditions: A-to-B; 5 µM; 120 minutes
[5] = tested on: GluN2D receptor mutants (Q801Y, L705F and A752V); assay: inhibition of mutant GluN2D receptors; format: cell-based; conditions: mutants vs wild type GluN2D; Figure S1
[6] = human, liver microsomes, pH 7.4

Structure (SMILES)	effect in primary binding assay [1]	plasma stability (plasma stability, human)	plasma stability (plasma stability, rat)	plasma stability (plasma stability, mouse)	microsomal CLint at 1 µM [2, 6]	remaining at 0 h, 1 µM [2, 6]	Papp A→B at 120 min, 5 µM (P-gp (MDR1); determination 1, A-to-B)	Papp B→A at 120 min, 5 µM (P-gp (MDR1); determination 1, B-to-A)	Papp A→B at 120 min, 5 µM (P-gp (MDR1); determination 2, A-to-B)	Papp B→A at 120 min, 5 µM (P-gp (MDR1); determination 2, B-to-A)	further results
O=C(O)/C=C/C(=O)N1N=C(c2c(-c3ccc(Br)cc3)c3ccccc3[nH]c2=O)CC1c1ccc(Cl)cc1 (stereo not drawn) [Compound 58, (E)-4-{3-[4-(4-Bromophenyl)-2-oxo-1,2-dihydroquinolin-3-yl]-5-(4-chlorophenyl)-4,5-dihydro-1H-pyrazol-1-yl}-4-oxobut-2-enoic acid]	minimal effect	minimal degradation	minimal degradation	minimal degradation							remaining activity at 3 µM (GluA3): 100 ± 1.1%; remaining activity at 3 µM (GluK1): 100 ± 4.4%
O=C(CCCO)N1N=C(c2c(-c3ccc(Cl)cc3)c3ccccc3[nH]c2=O)CC1c1ccc(Cl)cc1 (stereo not drawn) [Compound 64, 4-(4-Chlorophenyl)-3-[5-(4-chlorophenyl)-1-(4-hydroxybutanoyl)-4,5-dihydro-1H-pyrazol-3-yl]quinolin-2(1H)-one]		minimal degradation	minimal degradation	minimal degradation	110 µL/min/mg	100%	2.45 ×10⁻⁶ cm/s	66.2 ×10⁻⁶ cm/s	2.48 ×10⁻⁶ cm/s	62.7 ×10⁻⁶ cm/s	IC50 (GluN1/GluN2C): 1.7 µM; half-life at 1 µM [2, 6]: 13 min; remaining at 0.5 h, 1 µM [2, 6]: 24%; remaining at 1 h, 1 µM [2, 6]: 6.5%; efflux ratio at 120 min, 5 µM (P-gp (MDR1); MDCK-MDR1, pH 7.4): 26; Papp B→A at 120 min, 5 µM (P-gp (MDR1); Avg, B-to-A): 64.5 ×10⁻⁶ cm/s; recovery at 120 min, 5 µM (P-gp (MDR1); A-to-B): 43%; recovery at 120 min, 5 µM (P-gp (MDR1); B-to-A): 73%; IC50 (GluN1/GluN2B): 33 µM; IC50 (GluN1/GluN2A): 62 µM; IC50 (GluN1/GluN2D [3]): 0.69 µM
O=C(CCCF)N1N=C(c2c(-c3ccc(Cl)cc3)c3ccccc3[nH]c2=O)CC1c1ccc(Cl)cc1 (stereo not drawn) [Compound 68, 4-(4-Chlorophenyl)-3-[5-(4-chlorophenyl)-1-(4-fluorobutanoyl)-4,5-dihydro-1H-pyrazol-3-yl]quinolin-2(1H)-one]					40 µL/min/mg	100%	4.51 ×10⁻⁶ cm/s	9.32 ×10⁻⁶ cm/s	3.24 ×10⁻⁶ cm/s	9.72 ×10⁻⁶ cm/s	activity (in words) (NMDA receptor subtypes): inactive
O=C(O)CCC(=O)N1N=C(c2c(-c3ccc(Cl)cc3)c3ccccc3[nH]c2=O)C[C@H]1c1ccc(Cl)cc1 [Compound 69]											selectivity over other NMDA receptor subunits (GluN1/GluN2D [4]; GluN2D/GluN2C vs other subunits): over 70 fold; fold more potent at GluN2D-containing receptors than the R-enantiomer, 70 (GluN1/GluN2D [4]; S-enantiomer vs R-enantiomer): 11 fold
O=C(O)CCC(=O)N1N=C(c2c(-c3ccc(Cl)cc3)c3ccccc3[nH]c2=O)CC1c1ccc(Cl)cc1 (stereo not drawn) [Compound 26, 4-{5-(4-Chlorophenyl)-3-[4-(4-chlorophenyl)-2-oxo-1,2-dihydroquinolin-3-yl]-4,5-dihydro-1H-pyrazol-1-yl}-4-oxobutanoic acid]	minimal effect	minimal degradation	minimal degradation	minimal degradation	< 20 µL/min/mg			33.4 ×10⁻⁶ cm/s		17.9 ×10⁻⁶ cm/s	degradation in human liver microsomes (in words) ([2]; over the 60 minute assay): minimal degradation; Papp, Avg (MDR1-MDCK): 0.47 10^−6cm/s; effect of mutations on degree of inhibition [5]: significantly reduced the degree of inhibition
